Entries after “also recorded” stand apart in the source; their conditions may differ. No end group written: not given here.
Columns and labels:
[1] = test system: human synovial grafts; test: Synovial homing of single phage clones in SCID mice transplanted with human synovium; format: in vivo; settings: 1×10^11 pfu i.v., 15 minutes recirculation; for localization of phage clone to synovial grafts in comparison to strep-clone-1 phage control: SCID mice with human synovium grafts
Description: (§1) Selection in vivo of synovial specific phage.
Confirmation of synovial homing specificity in single phage clones displaying consensus motifs. 1×10^11 pfu (200 μL saline fmal volume) of three single phage clones (1.23, 2.10 and 3.1) displaying consensus motifs or the strep-clone-1 phage control were and injected intravenously in separate animals transplanted with human synovium as described in ‘Selection in vivo ofsynovial specific phage’. The number of study and control clone phage localising to synovial grafts was determined as described in the same section.

[2] = test system: human synovial grafts (cognate synovial MVE ligand); test: Competitive localisation to human synovial grafts of synthetic biotinylated peptide against parent 3.1 phage clone; format: in vivo; settings: for effect on graft localisation of the 3.1 phage clone: 50, 250 and 500 μg/mouse with 3.1 phage clone
Description: as §1
(§2) Competitive localisation to human synovial grafts of synthetic biotinylated peptide […] against the parent 3.1 phage clone. SCID mice were transplanted with human synovial tissue and injected intravenously, as describe above for the in vivo selection experiments, with 1×10^11 tpfu of 3.1 phage clone in presence or absence of increasing concentrations of the biotinylated CKSTHRDLC synthetic peptide (50, 250 and 500 μg/mouse in 200 μL dose volume) or the biotinylated CGTWSHPQC synthetic peptide control. Controls also included animals injected with 1×10^11 pfu of strep-clone-1 or biotin alone. After 15 minutes circulation time, mice were perfused and the number of phage in the transplants determined as described above. Histological analysis was performed as described below.

[3] = test system: murine kidney; test: Phage recovery from murine kidney in the competitive localisation experiment; format: in vivo, mouse; settings: with or without study or control peptide
Description: as §1, §2

[4] = test system: human microvascular endothelium in synovial grafts; test: Assessment of graft localization of biotinylated peptides (ABC-AP immunohistology); format: in vivo; settings: for localisation of biotinylated peptide to synovial grafts (immunoreactivity): 500 μg/mouse with 3.1 phage clone, ABC-AP, Vector Red
Description: as §2
Assessment of graft localization of biotinylated peptides. The graft localisation of the biotinylated CKSTHRDLC synthetic peptide was assessed by using the alkaline phosphatase avidin biotin complex (ABC-AP) detection system (Dako, UK) and visualised by Vector Red substrate (Novacastra, UK).

[5] = test system: human synovial grafts; settings: 1×10^11 pfu i.v., double transplanted RA synovium and skin
Description: Selection in vivo of synovial specific phage. Synovial homing phage were isolated by 3-4 cycles of enrichment in SCID mice transplanted with human tissues at 4-6 weeks of age. Four weeks post-transplantation the pep-PDL library (1×10^11 pfu in 200 μL saline final volume) was injected into the tail vein of anaesthetized animals. After 15 minutes (in vivo phage circulation time), while under deep/terminal anaesthesia (Sagatal, 5 μg/mouse, Rhone Merieux, France) the mice were perfused via the left ventricle with approximately 50-100 mL of saline to ensure phage clearance from the blood pool. Grafts and various mouse organs were then extracted and divided into two aliquots, weighed and processed as necessary for phage recovery and histological analysis. The aliquot assigned for immunohistology was embedded in Optimal Cutting Temperature compound (OCT, Miles, Calif.), snap frozen in liquid nitrogen cooled isopentane (BDH) and stored at −70° C. until analysis. The aliquot used for phage recovery was washed three times in TBS (150 mM NaCl, 50 nm Tris, pH7.4, Sigma, Poole, UK) then homogenized in 1 ml of TBS containing protease inhibitor cocktail (Sigma). […] After a 37° C. overnight incubation the peptide phage, appearing as blue plaques, were counted and the yield of phage localising to each individual tissue determined. […]

[6] = test system: human synovium and skin grafts (OA patient); settings: OA synovium and skin double transplants, 15 min recirculation
Description: To assess whether the synovial homing properties were due to the intrinsic characteristics of the synovium or related to the disease status (e.g. RA vs OA), pooled clones recovered from the last round of in vivo selection (3rd and 4th round of the experiments described above) were tested in recirculation studies in vivo using SCID animals double transplanted with skin and human synovium from a patient with OA. As previously, equivalent amounts of strep-clone-1 phage were injected intravenously into control animals.

Substance | localization of phage clone to synovial grafts in comparison to strep-clone-1 phage control [1] | effect on graft localisation of the 3.1 phage clone [2] | localisation of biotinylated peptide to synovial grafts (immunoreactivity) [4] | other results
CKSTHDRLC [3.1] | significantly greater localization |  |  | increase of synovial graft localization over the control strep-clone-1 phage [1]: approximately 10 fold; graft localisation relative to strep-clone-1 control ([2]; phage alone, 15 minutes circulation): approximately nine times more; level of phage localisation to murine kidney [3]: only minimal ‘background’ localisation
CDRLNHQFC [2.10] | significantly greater localization |  |  | 
CKSTHDRLC (not fully specified; cysteine pairing not given here; also: biotinylated, site not given here) |  | dramatically inhibits in a dose dependent fashion | strongly localises in vivo to synovial grafts | inhibition of graft localisation of the parent 3.1 phage clone ([2]; at maximal dose (500 μg/mouse i.v.), 15 minutes circulation): over 80%; site of peptide binding within synovial grafts (double staining with anti-human vWf-FITC) ([4]; 500 μg/mouse): specific immunoreactivity co-localising with human vasculature; also recorded: binds principally to human microvascular endothelium
CGTWSHPQC (cysteine pairing not given here; also: biotinylated, site not given here) [reference compound] |  | no significant effect | no specific immunoreactivity | 
CTHSSATQC [1.23] | significantly greater localization |  |  | 
C-G-T-W-S-H-P-Q-C [strep-clone-1] |  |  |  | localisation of phage to synovial grafts, skin grafts and mouse kidney [5]: comparable low levels of localisation in all three tissues; number of phage recovered from synovial grafts versus skin grafts [6]: virtually the same

— US20050100555A1, “Homing peptides” (KING'S COLLEGE LONDON An Institute Incorporated by Royal …, priority 2001, published 2005)
